The record followed here is patent US20070293467A1, “Demethyl-Cantharidin Platinum Complex Isomers and Their Use” (priority 2004, published 2007).

Each structure is given as a SMILES string. Where two headings read alike, the source gives them in different places.

As a reminder, the IC50 is the point on the concentration scale where inhibition reaches its midpoint.

Common to all, as to type: cell-based
For experiment [1], the system named is SK-Hep. As to the kind of experiment: MTT tetrazolium microculture growth inhibition, SK-Hep. The settings on record: for IC50: SK-Hep, 72 h exposure, MTT, read-out: Average growth-inhibitory activity (IC50); for in vitro antitumor activity against SK-Hep: in words, from Table 5. The procedure:
(§1) DMC platinum complexes, together with controls cisplatin, carboplatin, and oxaliplatin were screened for an in vitro antitumor activity against various tumorous cell lines, using a tetrazolium microculture assay.
(§2) Drugs: Drugs to be tested were dissolved in a complete medium at twice the highest concentration to be used, followed by filtration (0.22 μm) sterilization. A series of log dilutions were made from each drug solution using complete medium. All drug solutions were prepared 10 minutes before addition to cells.
(§3) In vitro drug exposure: For each drug to be tested, trypsinized cells were adjusted to a concentration of 2×10^5 cells/ml in a complete medium, and 0.1 ml of the cell suspension was added to each of 24 wells in a 96-well microculture plate. The plate was then incubated at a standard condition for 24 hours in order to allow the cells to be adhered to the bottom of the well and restart exponential growth. To each well of the control culture and drug/concentration combinations, 0.1 ml of the complete medium and drug solution were added, respectively. Each drug/concentration combination consisting of four replicates while the control culture consisting of 12 replicates. The twelve replicates of a blank control containing 0.2 ml of the complete medium were set aside to account for the background. The cultures were incubated for additional 72 hours. All tests were repeated at least 3 times on different occasions.
(§4) MTT assay: The MTT (tetrazolium) assay was used to determine the growth-inhibitory effects of different drugs. A 5 mg/ml solution of MTT (3-(4,5-dimethylthiazol-2-yl)-2,5-diphenyltetrazolium bromide) was prepared in phosphate buffer saline (pH 7.4), sterilized by filtration (0.22 μm) and stored at −20° C. To each well, 0.02 ml of an MTT solution was added, and the plate was incubated for 4 hours under standard conditions. The medium in each well was then removed, and 0.1 ml of DMSO (dimethylsulfoxide) was added to each well to solubilize the colored dye produced from the metabolic reduction of MTT. The amount of reduced MTT was measured by spectrophotometric means (570 nm).
(§5) Data analysis: A mean value of OD was determined for all of the 12 control wells. For each concentration of each drug, A mean OD of the 4 wells was determined. All the mean ODs were subtracted from the blank to account for the background. The “Percent of Control” values were determined and plotted.

Experiment [2] deals with SK-Hep resistance. As to the kind of experiment: MTT tetrazolium microculture growth inhibition, SK-Hep resistance. The conditions noted are these: for resistance of SK-Hep to the drug: SK-Hep resistance vs SK-Hep, from IC50 of Table 5; for IC50: SK-Hep resistance, 72 h exposure, MTT, read-out: Average growth-inhibitory activity (IC50). Here is the method: as §1, §2, §3, §4, §5

Experiment [3] concerns Huh-7. The experiment is described as follows: MTT tetrazolium microculture growth inhibition, Huh-7. The conditions noted are these: for IC50: Huh-7, 72 h exposure, MTT, read-out: Average growth-inhibitory activity (IC50); for in vitro antitumor activity against Huh-7 cell: in words, from Table 5. Here is the method:
as §1, §2, §3, §4, §5

In experiment [4] the test system is Huh-7 resistance. The experiment is described as follows: MTT tetrazolium microculture growth inhibition, Huh-7 resistance. The settings on record: for resistance of Huh-7 to the drug: Huh-7 resistance vs Huh-7, from IC50 of Table 5; for IC50: Huh-7 resistance, 72 h exposure, MTT, read-out: Average growth-inhibitory activity (IC50); for cross-resistance of Huh-7: Huh-7 resistance vs Huh-7, within experimental errors. The procedure: as §1, §2, §3, §4, §5

Experiment [5] relates to liver cancer cell line PLC/5. The experiment is described as follows: MTT tetrazolium microculture growth inhibition, PLC/5. The conditions noted are these: for IC50: PLC/5, 72 h exposure, MTT, read-out: Average growth-inhibitory activity (IC50); for activity against liver cancer cell line PLC/5: in words, from Table 5. The procedure: as §1, §2, §3, §4, §5
In experiment [6] the test system is colorectal cancer cell line Colo320. The experiment is described as follows: MTT tetrazolium microculture growth inhibition, Colo320. The conditions noted are these: for IC50: Colo320, 72 h exposure, MTT, read-out: Average growth-inhibitory activity (IC50); for activity against colorectal cancer cell line Colo320: in words, from Table 5. The procedure: as §1, §2, §3, §4, §5

The test system of experiment [7] is L1210. As to the kind of experiment: MTT tetrazolium microculture growth inhibition, L1210. The conditions noted are these: 72 h exposure, read-out: Average growth-inhibitory activity (IC50). Here is the method:
as §1, §2, §3, §4, §5

Experiment [8] concerns L1210 resistance. The experiment is described as follows: MTT tetrazolium microculture growth inhibition, L1210 resistance. The conditions noted are these: for resistance / cross-resistance of L1210: L1210 resistance vs L1210; for IC50: L1210 resistance, 72 h exposure, MTT, read-out: Average growth-inhibitory activity (IC50). The procedure: as §1, §2, §3, §4, §5
Experiment [9] deals with HCT-116. The experiment is described as follows: MTT tetrazolium microculture growth inhibition, HCT-116. The conditions noted are these: 72 h exposure, read-out: Average growth-inhibitory activity (IC50). The procedure: as §1, §2, §3, §4, §5
Experiment [10] has as its system HT-29. The experiment is described as follows: MTT tetrazolium microculture growth inhibition, HT-29. The conditions noted are these: 72 h exposure, read-out: Average growth-inhibitory activity (IC50). Here is the method:
as §1, §2, §3, §4, §5

In the case of `N.N.[Cl][Pt][Cl]` [Cisplatin, reference compound], the IC50 turned out to be 13.5 ± 1.84 µM in [1]; 51.8 ± 7.01 µM in experiment [2]; 11.7 ± 1.21 µM in experiment [3]; 25.6 ± 3.5 µM in experiment [4]; 6.92 ± 1.46 µM in [5]; 2.54 ± 0.48 µM in experiment [6]. In addition, the IC50 in experiment [7] worked out at 0.82 ± 0.14 µM; in [8], 14 ± 1.49 µM; in experiment [9], 4.14 ± 0.8 µM; in experiment [10], 12.1 ± 2.25 µM. Further, the “resistance of SK-Hep to the drug” value in experiment [2] turned out to be 4 fold. In addition, the “resistance of Huh-7 to the drug” value in experiment [4] was 1.5 fold. For the same compound, in experiment [8], the “resistance / cross-resistance of L1210” value is recorded as “high resistance”.

Consider `O=C1[O][Pt]2([NH][C@@H]3CCCC[C@H]3[NH]2)[O]C1=O` [Oxaliplatin, reference compound], for which the IC50 was found to be 9.09 ± 4.24 µM in experiment [1], 8.97 ± 4.56 µM in experiment [3], 6.48 ± 3.19 µM in experiment [5] and 1 ± 0.31 µM in experiment [6].

For `O=C1[O][Pt]2([NH][C@@H]3CCCC[C@H]3[NH]2)[O]C(=O)C2C3CCC(O3)C12` (stereo partly drawn) [Trans-R,R(−)-DMC platinum complex, Trans-R,R-(−)-DMC platinum complex], the IC50 turned out to be 6.63 ± 2.21 µM in experiment [1]; 4.7 ± 0.95 µM in experiment [2]; 3.65 ± 1.1 µM in [3]; 26.9 ± 6.14 µM in experiment [4]; 3.23 ± 1.13 µM in [5]; 2.45 ± 0.83 µM in experiment [6]. Further, the IC50 came to 0.76 ± 0.09 µM in experiment [7], 0.99 ± 0.1 µM in experiment [8], 0.45 ± 0.27 µM in [9] and 0.92 ± 0.57 µM in [10]. The “in vitro antitumor activity against SK-Hep” value in experiment [1] was “effective in vitro antitumor activities”. Further, the “in vitro antitumor activity against Huh-7 cell” value in experiment [3] is “effective in vitro antitumor activities”. Besides, the “activity against liver cancer cell line PLC/5” value in experiment [5] is on record as “effective activities”. Besides, the “activity against colorectal cancer cell line Colo320” value in [6] was “more effective”. For the same compound, the “resistance / cross-resistance of L1210” value in [8] is reported as “no cross-resistance”.

On to `O=C1[O][Pt]2([NH][C@H]3CCCC[C@H]3[NH]2)[O]C(=O)C2C3CCC(O3)C12` (stereo partly drawn) [Cis-DMC platinum complex], for which the IC50 in experiment [1] turned out to be 19.4 ± 2.23 µM; in experiment [2] it was 22.7 ± 1.11 µM; in [3], 19 ± 1.46 µM; in experiment [4], 17.1 ± 0.77 µM; in [5], 17.1 ± 1.18 µM; in experiment [6] it was 5.98 ± 0.97 µM. Moreover, the IC50 in experiment [9] came out at 12.6 ± 1.67 µM. Also, in experiment [4], the “cross-resistance of Huh-7” value is listed as “no cross-resistance”.

As to `O=C1[O][Pt]2([NH][C@@H]3CCCC[C@H]3[NH]2)[O]C(=O)C2C3CCC(O3)C12` (mixture of isomers) [Trans-DMC platinum complex, Trans-Racemic DMC Platinum Complex], the half-maximal inhibitory concentration (IC50) in experiment [1] was found to be 4.27 ± 1.03 µM; in experiment [2], 5.01 ± 0.68 µM; in experiment [3] it was 4.47 ± 0.79 µM; in [4], 5.99 ± 0.52 µM; in [5], 4.64 ± 1.01 µM; in [6], 2.54 ± 0.95 µM. The IC50 in experiment [7] worked out at 0.14 ± 0.06 µM; in [8], 0.17 ± 0.05 µM; in [9], 0.81 ± 0.29 µM; in experiment [10], 2.09 ± 0.69 µM. The “in vitro antitumor activity against SK-Hep” value in experiment [1] is “effective in vitro antitumor activities”. Moreover, the “in vitro antitumor activity against Huh-7 cell” value in experiment [3] is on record as “effective in vitro antitumor activities”. Moreover, the “cross-resistance of Huh-7” value in experiment [4] is “no cross-resistance”. The “activity against liver cancer cell line PLC/5” value in experiment [5] is “effective activities”. In addition, in [6], the “activity against colorectal cancer cell line Colo320” value is recorded as “more effective”. Besides, the “resistance / cross-resistance of L1210” value in experiment [8] is given as “no cross-resistance”.

Take `O=C1[O][Pt]2([NH][C@H]3CCCC[C@@H]3[NH]2)[O]C(=O)C2C3CCC(O3)C12` (stereo partly drawn) [Trans-S,S(+)-DMC platinum complex, Trans-S,S-(+)-DMC platinum complex]: the IC50 in [1] was determined as 6.15 ± 1 µM; in experiment [2] it was 8.09 ± 0.89 µM; in experiment [3], 8.46 ± 1.51 µM; in experiment [4], 16.2 ± 2.6 µM; in [5] it was 6.26 ± 1.87 µM; in experiment [6] it was 4.96 ± 1.32 µM. Also, the 50% inhibitory concentration (IC50) was 0.11 ± 0.05 µM in experiment [7], 0.12 ± 0.06 µM in [8], 2.04 ± 0.41 µM in experiment [9] and 3.07 ± 0.73 µM in experiment [10]. In addition, the “in vitro antitumor activity against SK-Hep” value in [1] is “effective in vitro antitumor activities”. In addition, the “in vitro antitumor activity against Huh-7 cell” value in experiment [3] was “effective in vitro antitumor activities”. Moreover, in experiment [5], the “activity against liver cancer cell line PLC/5” value is on record as “effective activities”. Besides, in experiment [6], the “activity against colorectal cancer cell line Colo320” value is on record as “more effective”. Besides, in experiment [8], the “resistance / cross-resistance of L1210” value is given as “no cross-resistance”.

As to `O=C1OC(=O)C2C3CCC(O3)C12` (stereo not shown) [DMC, Demethylcantharidin, reference compound], the concentration for half-maximal inhibition (IC50) in experiment [1] (SKHep) is 19 ± 2.01 µM; in experiment [2] (SKHep) it was 25.5 ± 1.69 µM; in experiment [3] (Homo sapiens) it was 32.9 ± 3.68 µM; in experiment [4] (Homo sapiens), 26.9 ± 3.03 µM; in experiment [5] (PLC5) it was 25.3 ± 1.98 µM; in [6] (Homo sapiens, COLO 320), 23.9 ± 1.42 µM. The IC50 in experiment [7] (Mus musculus) stood at 31.2 ± 1.79 µM; in [8] (Mus musculus) it was 45.5 ± 3.69 µM; in [9] (Homo sapiens), 23.2 ± 2.06 µM; in [10] (Homo sapiens), 32.7 ± 2.57 µM.

Take `N.N.O=C([O-])C1(C(=O)[O-])CCC1.[Pt+2]` [Carboplatin, reference compound]: the IC50 in experiment [1] is 134 ± 10.3 µM; in experiment [2], 358 ± 28 µM; in experiment [3], 117 ± 9.82 µM; in [4], 176 ± 54 µM; in experiment [5], 80.2 ± 15.8 µM; in experiment [6], 41.7 ± 5.44 µM. The half-inhibitory concentration (IC50) was 12.8 ± 2.14 µM in [7], 126 ± 17.2 µM in experiment [8], 69.4 ± 14.7 µM in [9] and 134 ± 15 µM in [10]. In addition, the “resistance of SK-Hep to the drug” value in [2] was “about 2.7 fold”. Besides, in experiment [4], the “resistance of Huh-7 to the drug” value is given as 1.5 fold. In experiment [8], the “resistance / cross-resistance of L1210” value is given as “high resistance”.
